Measurements from paper PMC3877894, “Cytotoxic, Cytostatic and HIV-1 PR Inhibitory Activities of the Soft Coral Litophyton arboreum” (Marine Drugs, 2013).
Starred links: 1 amine or outer side, 2 acyl side, 3 side chain; linkers in the order of their positions; H or OH if unused. Positions of bridges follow the written chain, without caps; N, C: chain ends. Non-standard residues stand in square brackets, D forms with d. Residues, ends and D or L forms follow the SMILES beside them. Chains are numbered I, II in the order given. Actinocin(9to1) = Cc1c2oc3c(C)ccc(C(=O)[*:1])c3nc-2c(C(=O)[*:2])c(N)c1=O; NMeV = CN[C@H](C(=O)O)C(C)C; Sar = CNCC(=O)O

Key:
[1] = XTT cytotoxicity assay in Vero cells; settings: African green monkey
Experimental: (§1) HeLa, U937, and Vero cell lines were maintained in culture flasks containing Eagle’s Minimum Essential Medium supplemented with 10% heat-inactivated FBS and 1% antibiotics (100 U/mL penicillin, 100 μg/mL streptomycin, and 250 μg/mL fungizone). The cells were grown at 37 °C in a humidified incubator set at 5% CO2. Cells were subcultured after they formed a monolayer on the flask. The cells were detached by treating them with trypsin-EDTA (0.25% trypsin containing 0.01% EDTA) for 10 minutes and then by adding complete medium to inhibit the reaction. Cytotoxicity was measured by the XTT method using the Cell Proliferation Kit II. The method described by Zheng et al. was used to perform the assay. Cells were seeded (100 μL) in a 96-well microtiter plate (concentration 1 × 10^5 cells/mL). The plate was then incubated for 24 h at 37 °C and 5% CO2 to allow the cells to attach to the bottom of the wells. The compounds were each prepared to a stock solution of 20 mg/mL and added to the microtiter plate. Serial dilutions were made to range from a concentration of 100 μg/mL–0.7 μg/mL for each compound. The microtiter plate was incubated for a further 72 h. The control wells included vehicle-treated cells exposed to 2% DMSO and the positive control Actinomycin D, with concentrations ranging between 0.5 μg/mL and 0.002 μg/mL. After the 72 h incubation period, the XTT reagent (50 μL) was added to a final concentration of 0.3 mg/mL and the plate was then further incubated for another 2 h. After the incubation the absorbance of the color complex was read at 490 nm with a reference wavelength set at 690 nm. […] The IC50 values were reported at ±95% confidence intervals (±95% CI). The results were analyzed using the GraphPad Prism 4 program.

[2] = XTT cytotoxicity assay in U937 cells; settings: human
Experimental: as §1

[3] = XTT cytotoxicity assay in HeLa cells; settings: human
Experimental: as §1

HIV-1 PR = target: T1, HIV-1 PR (Human immunodeficiency virus type 1 group M subtype B, UniProt P04585); experiment: HIV-1 protease direct enzyme assay (fluorogenic peptide substrate); assay type: biochemical; settings: for IC50: read-out: IC50 HIV-1 PR; for inhibition at 100 µg/mL: screened at 100 µg/mL
T1 construct: HIV-1 protease enzyme was purchased from Bachem Bioscience Inc; purchased Bachem Bioscience Inc
Experimental: HIV-1 protease enzyme was purchased from Bachem Bioscience Inc. King of Prussia, PA, […] and the substrate (a synthetic peptide that contains a cleavage site Tyr-Pro for HIV protease as well as two covalently modiﬁed amino acids for the detection of cleavage). The assay was performed according to procedures by Lam et al., 2000 [39], in black 96 well assay plates obtained from Corning Incorporated, (Corning, New York, NY, USA). The fluorescence intensity was measured at an excitation wavelength of 355 nm and an emission wavelength of 460 nm using a synergy microplate spectrofluorometer (BioTek, Analytical & Diagnostic products, South Africa). […] DMSO was included in the enzyme control (1% DMSO). […] The percentage inhibition was calculated based on the formula: 100 − [(Test reagent RFU − background RFU)/(untreated control RFU − blank) × 100] where RFU = relative fluorescence units.
All the experiments were repeated three times in order to ensure the precision and accuracy of the data.

HeLa cells = experiment: Real-time cell electronic sensing (RT-CES, xCELLigence) in HeLa cells; assay type: cell-based
Experimental: The xCELLigence system was used according to the instructions of the supplier (Roche Diagnostics, Mannheim, Germany and ACEA Biosciences, San Diego, CA, USA). HeLa cell line, media, trypsin-EDTA, fetal bovine serum (FBS), phosphate buffer saline (PBS), and antibiotics were supplied by […] Biological (Pty) Ltd. (Modderfontein, Johannesburg, South Africa). The electronic impedance of sensor electrodes that connect the E plate to the instrument is measured to allow monitoring and detection of physiological changes of the cells on the electrodes. The impedance measured between electrodes in an individual well depends on electrode geometry, ion concentration in the well and whether or not cells are attached to the electrodes. In the absence of cells, electrode impedance is mainly determined by the ion environment, both at the electrode/solution interface, and in the bulk solution. In the presence of cells, cells attached to the electrode sensor surfaces will act as insulators and thereby alter the local ion environment at the electrode/solution interface, leading to an increase in impedance. Thus, the more cells that are growing on the electrodes, the larger the value of electrode impedance. This assay has been described for the measurement of cytotoxicity and can be used to determine other cellular parameters such as cell proliferation, cytotoxicity start time, cell recovery, and cell response patterns in real time. HeLa cells were grown and expanded in tissue-culture flasks. After reaching ~75% confluence, the HeLa were washed with PBS, and afterwards detached from the flasks by a brief treatment with trypsin. Subsequently, 50 μL of cell culture media at room temperature was added into each well of E-plate. After this the plate was connected to the system and checked in the cell culture incubator for proper electrical-contacts and the background impedance was measured over 24 h. […] One-hundred microliters of each cell suspension was added to the 50 μL medium containing wells on the E-plate, in order to determine the optimum cell concentration. After 30 min incubation at room temperature, E-plates were placed into the cell culture incubator. Finally, adhesion, growth, and proliferation of the cells was monitored every 30 min for a period of up to 18 h via the incorporated sensor electrode arrays of the E-Plate. The electrical impedance was measured by the RTCA-integrated software of the xCELLigence system as a dimensionless parameter termed Cell index (CI). […] All experiments were run for 72 h after adding the compounds. All calculations were obtained using the RTCA-integrated software of the xCELLigence system.

[4] = HeLa cells, Cytotoxicity IC50 HeLa, XTT, 72 h incubation

Row | SMILES | IC50 at 72 h [1] [µM] | IC50 at 72 h [2] [µM] | IC50 at 72 h [3] [µM] | IC50 at 72 h ([1]; Vero cells) [µM] | IC50 at 72 h ([2]; U937 cells) [µM] | IC50 at 72 h ([3]; HeLa cells, Cytotoxicity IC50 HeLa, XTT) [µg/mL] | IC50 at 72 h [3, 4] [µM] | IC50 (HIV-1 PR) [µM] | inhibition at 100 µg/mL (HIV-1 PR) [%] | RT-CES effect in HeLa (HeLa cells; 16 μg/mL (Figure 5)) | RT-CES (xCELLigence) effect in HeLa (HeLa cells; 30 µg/mL) | inhibition of cell proliferation compared to untreated cells (RT-CES) (HeLa cells; HeLa, Figure 5) [%]
1 | Cc1c2oc3c(C)ccc(C(=O)N[C@@H]4C(=O)N[C@H](C(C)C)C(=O)N5CCC[C@H]5C(=O)N(C)CC(=O)N(C)[C@@H](C(C)C)C(=O)O[C@@H]4C)c3nc-2c(C(=O)N[C@@H]2C(=O)N[C@H](C(C)C)C(=O)N3CCC[C@H]3C(=O)N(C)CC(=O)N(C)[C@@H](C(C)C)C(=O)O[C@@H]2C)c(N)c1=O [Actinomycin D, reference compound] (I: T[dV]P[Sar][NMeV] / II: T[dV]P[Sar][NMeV]; ester I:1-I:C, II:1-II:C; linker I:N-II:N via Actinocin(9to1)) | 8.8 ± 2.5 | 1.9 ± 0.865 | 5.1 ± 0.1 | – | – | – | – | – | – | – | – | –
2 | CC1=CCCC(C)=CCC(O)(C(C)C)CCC(C)=CCC1 (stereo not drawn) [Compound 1, sarcophytol M] | – | – | – | 22 ± 0.2 | 31.7 ± 3.2 | 8.1 | 27.5 ± 0.2 | 15.7 ± 0.1 | 100 | – | – | –
3 | C=C1CCC(C(C)C)=CC2C1CCC2(C)O (stereo not drawn) [Compound 2, alismol] | – | – | – | 49 | – | – | 30 ± 17.2 | 7.2 ± 0.7 | 96.2 | cytostatic behavior | cytostatic effect | 50
4 | C=C(CC[C@@H](C)[C@H]1CCC2C3CC=C4C[C@@H](O)CC[C@]4(C)C3CC[C@@]21C)C(C)C (stereo partly drawn) [Compound 3, 24-methylcholesta-5,24(28)-diene-3β-ol] | – | – | – | 100 ± 1.2 | – | – | 48 ± 8.7 | – | – | – | – | –
5 | CO[C@]1(C)CCC(C(C)C)=C[C@H]2[C@H]1CC[C@]2(C)O [Compound 4, 10-O-methyl alismoxide] | – | – | – | 49.8 ± 0.5 | 50 ± 0.23 | – | 38 ± 0.7 | – | – | – | – | –
